Assay: excess molar enthalpy (molar enthalpy of mixing); xn = mol fraction of the nth substance listed
Conditions: 101.3 kPa, Liquid, Isoperibol calorimetry

CCOC(=O)C(=O)OCC [diethyl ethanedioate] + CCO
excess molar enthalpy [kcal/mol]
Conditions | 288.2 K | 298.2 K | 313.2 K | 328.2 K
x1 = 0.0495 | 0.0698 | 0.0837 | 0.0949 | 0.104
x1 = 0.0994 | 0.135 | 0.161 | 0.185 | 0.205
x1 = 0.1508 | 0.194 | 0.222 | 0.257 | 0.2875
x1 = 0.2004 | 0.237 | 0.2679 | 0.3093 | 0.3468
x1 = 0.2497 | 0.2763 | 0.3083 | 0.3564 | 0.4006
x1 = 0.3009 | 0.3045 | 0.3411 | 0.3929 | 0.4379
x1 = 0.3502 | 0.3272 | 0.3654 | 0.4209 | 0.4706
x1 = 0.4003 | 0.3466 | 0.3846 | 0.4419 | 0.4933
x1 = 0.4508 | 0.3566 | 0.3989 | 0.4582 | 0.5081
x1 = 0.5011 | 0.3642 | 0.4051 | 0.463 | 0.5127
x1 = 0.5506 | 0.365 | 0.4051 | 0.4613 | 0.5112
x1 = 0.5986 | 0.3611 | 0.4001 | 0.4541 | 0.499
x1 = 0.6502 | 0.3511 | 0.385 | 0.4362 | 0.4775
x1 = 0.6996 | 0.3325 | 0.3638 | 0.4101 | 0.4474
x1 = 0.7525 | 0.3057 | 0.332 | 0.3731 | 0.4001
x1 = 0.8021 | 0.2713 | 0.2935 | 0.325 | 0.3456
x1 = 0.8473 | 0.2268 | 0.2481 | 0.2691 | 0.2878
x1 = 0.9034 | 0.164 | 0.172 | 0.19 | 0.194
x1 = 0.946 | 0.0997 | 0.101 | 0.116 | 0.116

CCOC(=O)C(=O)OCC [diethyl ethanedioate] + CCCO
excess molar enthalpy [kcal/mol]
Conditions | 288.2 K | 298.2 K | 313.2 K | 328.2 K
x1 = 0.0505 | 0.106 | 0.113 | 0.123 | 0.135
x1 = 0.1001 | 0.187 | 0.202 | 0.232 | 0.249
x1 = 0.1509 | 0.2524 | 0.2758 | 0.3152 | 0.3415
x1 = 0.1998 | 0.3033 | 0.3315 | 0.3776 | 0.4118
x1 = 0.2491 | 0.3415 | 0.3795 | 0.4328 | 0.4675
x1 = 0.2986 | 0.3755 | 0.4118 | 0.4696 | 0.5146
x1 = 0.3478 | 0.3996 | 0.4441 | 0.5043 | 0.5516
x1 = 0.4003 | 0.4192 | 0.4656 | 0.5284 | 0.5717
x1 = 0.4482 | 0.4302 | 0.4749 | 0.5382 | 0.5858
x1 = 0.499 | 0.4395 | 0.484 | 0.5447 | 0.5906
x1 = 0.5484 | 0.4371 | 0.4802 | 0.5392 | 0.586
x1 = 0.6007 | 0.4302 | 0.4732 | 0.5249 | 0.5648
x1 = 0.6509 | 0.4149 | 0.4527 | 0.5041 | 0.5368
x1 = 0.6986 | 0.3924 | 0.4247 | 0.4708 | 0.5038
x1 = 0.7487 | 0.3609 | 0.3877 | 0.4295 | 0.4517
x1 = 0.8015 | 0.3167 | 0.3403 | 0.3671 | 0.3853
x1 = 0.8509 | 0.2631 | 0.281 | 0.2988 | 0.3112
x1 = 0.9028 | 0.192 | 0.196 | 0.21 | 0.217
x1 = 0.9503 | 0.101 | 0.108 | 0.109 | 0.108

From the NIST ThermoML archive (doi:10.1016/j.jct.2013.05.024)
